How the values were obtained:
[1] = Loading of emulsions with xenon (xenon uptake, stability); format: physicochemical; details: 10% by weight fatty emulsion saturated with xenon
Procedure: The loading capacity of the abovementioned perfluorocarbon preparation is considerable. Xenon loads of e.g. 1 to 10 ml/ml have been achieved by the simplest means. For example, these preparations can be loaded with inert gas simply by having the gas passed through them.
Thus, even by the simplest means, xenon can be dissolved or dispersed in concentrations of 0.2 to 10 ml or more per ml of fatty emulsion (concentrations relate to standard conditions, i.e. 20° C. and normal pressure). The xenon concentration depends on a large number of factors, especially the concentration of the fat. As a rule the preparations will be “loaded” with xenon up to the saturation limit. However, it is also possible for very small concentrations to be present, provided, for example, that a pharmacological activity can still be observed on intravenous administration. In the case of a 10% fatty emulsion, it is easily possible to reach xenon concentrations of 0.3 to 2 ml of xenon per ml of fatty emulsion. It is of course also possible to reach higher values, e.g. 3, 4, 5, 6 or 7 ml of xenon per ml of fatty emulsion. These fatty emulsions are sufficiently stable, at least in gas-tight containers, for the xenon not to be released as a gas over conventional storage periods. […]

patient = test: Intravenous infusion of xenon-containing emulsion in a patient; details: in vivo
Procedure: To achieve a subanaesthetic action, the xenon load in the medicinal preparation need only be about 0.2 to 0.3 ml of xenon per ml of emulsion. This means that an analgesic and/or sedative action is assured for preparations with a xenon content of at least 0.2 ml/ml emulsion. An anti-inflammatory action is already observed at 0.1 ml/ml emulsion. […] When working with a highly laden perfluorocarbon emulsion containing 2 to 4 ml of xenon per ml of emulsion, for example, 20 ml of this emulsion are infused over 30 sec, for example, in order to induce anaesthesia. An infusion rate of at least 7.5 ml/min is sufficient to maintain the anaesthesia. A total of 470 ml of emulsion would thus be used for a 1-hour operation. With a xenon content of 3 ml of xenon per ml of emulsion, this corresponds to a xenon volume of 1410 ml, i.e. a fraction of the xenon consumed in inhalation anaesthesia (based on a body weight of 85 kg, this would be a consumption of 16.6 ml per kg in one hour).

[Xe] [xenon, Xenon]
Xenon content at saturation [1]: about 0.3 ml of xenon per ml of emulsion
Xenon content at which an anti-inflammatory action is observed (patient): 0.1 ml/ml emulsion
Xenon content that assures an analgesic and/or sedative action (patient): at least 0.2 ml/ml emulsion

From patent US6511453B2, “Device for controlled anaesthesia, analgesia and/or sedation” (priority 1997, dated 2003)
